US20260034138A1, “NOVEL PYRIMIDINYL AND TRIAZINYL SULFONAMIDE DERIVATIVES” (Hoffmann-La Roche Inc., priority 2022, published 2026)

biological target: human GPR17 short isoform (Homo sapiens, UniProt Q13304); assay: GPR17 cAMP assay (hGPR17 cAMP); format: cell-based; details: CHO-K1 cells stably expressing human GPR17 short isoform; antagonist mode vs EC80 of MDL29,951; forskolin 15 μM; TR-FRET cAMP
Procedure: GPR17 cAMP Assay Protocol:
CHO-K1 cells stably expressing vector containing untagged human GPR17 short isoform (Roche) were cultured at 37° C./5% CO2 in DMEM (Dulbecco's Modified Eagle Medium): F-12 (1:1) supplemented with 10% foetal bovine serum and 400 μg/ml Geneticin.
Changes in intracellular cyclic adenosine monophosphate (cAMP) levels were quantified using the Nano-TRF Detection Assay kit (Roche Diagnostics, Cat. No. 05214386001). This assay allows for direct cAMP quantification in a homogeneous solution. cAMP is detected based on time-resolved fluorescence energy transfer (TR-FRET) and competitive binding of ruthenylated cAMP and endogenous cAMP to an anti-cAMP monoclonal antibody labeled with AlexaFluor-700. The Ruthenium complex serves as the FRET donor and transfers energy to AlexaFluor-700. The FRET signal is inversely proportional to the CAMP concentration.
CHO-GPR17S cells were detached with Accutase and resuspended in assay buffer consisting of Hank's Balanced Salt Solution (HBSS), 10 mM HEPES (4-(2-hydroxyethyl) piperazine-1-ethanesulfonic acid solution) and 0.1% bovine serum albumin (pH 7.4). The cells were seeded in black 384-well plates (Corning) at a density of 10'000 cells/20 μl assay buffer until the addition of compounds.
Test antagonist compounds were serially diluted in dimethyl sulfoxide (DMSO) and spotted in 384-well plates. The compounds were then diluted in HBSS buffer supplemented with an EC80 concentration of MDL29,951 (3-(2-Carboxy-4,6-dichloroindol-3-yl) propionic acid) (GPR17 agonist) plus 3-Isobutyl-1-methylxanthine (IBMX) (0.5 mM final concentration) and added to the cells at room temperature. Forskolin (15 μM final concentration) was added 5 minutes after the test compounds and the cells were incubated at room temperature for 30 minutes. The assay was stopped by adding cAMP detection mix (containing detergents for cell lysis) for 90 minutes at room temperature.
Cellular cAMP was measured using a Paradigm reader (Molecular Devices). The raw data was used to calculate the FRET signal based on the assay's P-factor as per cAMP kit instructions. The data was normalized to the maximal activity of a reference antagonist and dose response curves were fitted to the percent activity of the test compounds using a sigmoidal dose response model (Genedata Screener).
Results in the hGPR17 cAMP assay are provided for compounds of formula I in Table 1

Chain of human GPR17 short isoform (Q13304 29-367): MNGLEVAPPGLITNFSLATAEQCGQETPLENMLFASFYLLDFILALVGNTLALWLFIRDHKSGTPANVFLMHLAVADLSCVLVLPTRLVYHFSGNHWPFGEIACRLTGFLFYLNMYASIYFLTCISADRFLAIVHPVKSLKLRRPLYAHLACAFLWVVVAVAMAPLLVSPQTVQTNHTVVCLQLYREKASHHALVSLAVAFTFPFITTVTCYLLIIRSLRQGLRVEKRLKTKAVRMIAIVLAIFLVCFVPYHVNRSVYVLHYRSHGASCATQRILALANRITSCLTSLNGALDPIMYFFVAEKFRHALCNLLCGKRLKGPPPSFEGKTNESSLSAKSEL

Row | SMILES | IC50 [nM]
1 | CCCc1ncc(NS(=O)(=O)c2c[nH]c3cc(Cl)ccc23)c(OC)n1 [Example 1, 6-chloro-N-(4-methoxy-2-propyl-pyrimidin-5-yl)-1H-indole-3-sulfonamide] | 772
2 | COc1nc(OCC(F)F)ncc1NS(=O)(=O)c1c[nH]c2cc(C(F)(F)F)ccc12 [Example 11, N-[2-(2,2-difluoroethoxy)-4-methoxy-pyrimidin-5-yl]-6-(trifluoromethyl)-1H-indole-3-sulfonamide] | 347
3 | COc1nc(NS(=O)(=O)c2c[nH]c3cc(Cl)ccc23)nnc1CC(F)F [Example 12, 6-chloro-N-[6-(2,2-difluoroethyl)-5-methoxy-1,2,4-triazin-3-yl]-1H-indole-3-sulfonamide] | 908
4 | COc1nc(OC(F)F)ncc1NS(=O)(=O)c1c[nH]c2cc(Cl)ccc12 [Example 3, 6-chloro-N-[2-(difluoromethoxy)-4-methoxy-pyrimidin-5-yl]-1H-indole-3-sulfonamide] | 159
5 | CCc1ncc(NS(=O)(=O)c2c[nH]c3cc(Cl)ccc23)c(OC)n1 [Example 2, 6-chloro-N-(2-ethyl-4-methoxy-pyrimidin-5-yl)-1H-indole-3-sulfonamide] | 637
6 | COc1nc(OCC(F)F)ncc1NS(=O)(=O)c1c[nH]c2nc(Cl)ccc12 [Example 4, 6-chloro-N-[2-(2,2-difluoroethoxy)-4-methoxy-pyrimidin-5-yl]-1H-pyrrolo[2,3-b]pyridine-3-sulfonamide] | 460
7 | COc1nc(OCC(F)F)ncc1NS(=O)(=O)c1c[nH]c2cc(Cl)ccc12 [Example 8, 6-chloro-N-(2-(2,2-difluoroethoxy)-4-methoxypyrimidin-5-yl)-1H-indole-3-sulfonamide] | 121
8 | COc1nc(OCCF)ncc1NS(=O)(=O)c1c[nH]c2cc(Cl)ccc12 [Example 7, 6-chloro-N-(2-(2-fluoroethoxy)-4-methoxypyrimidin-5-yl)-1H-indole-3-sulfonamide] | 727
9 | COc1nc(NS(=O)(=O)c2c[nH]c3cc(Cl)ccc23)nnc1C [Example 13, 6-chloro-N-(5-methoxy-6-methyl-1,2,4-triazin-3-yl)-1H-indole-3-sulfonamide] | 5220
10 | O=S(=O)(Nc1cnc(OCC(F)F)nc1OC(F)F)c1c[nH]c2cc(Cl)ccc12 [Example 5, 6-chloro-N-[2-(2,2-difluoroethoxy)-4-(difluoromethoxy)pyrimidin-5-yl]-1H-indole-3-sulfonamide] | 174
11 | COc1nc(OCC(F)F)ncc1NS(=O)(=O)c1c[nH]c2nc(Br)ccc12 [Example 10, 6-bromo-N-[2-(2,2-difluoroethoxy)-4-methoxy-pyrimidin-5-yl]-1H-pyrrolo[2,3-b]pyridine-3-sulfonamide] | 167
12 | COc1nc(OCC(F)F)ncc1NS(=O)(=O)c1c[nH]c2cc(Br)ccc12 [Example 9, 6-bromo-N-[2-(2,2-difluoroethoxy)-4-methoxy-pyrimidin-5-yl]-1H-indole-3-sulfonamide] | 53
13 | O=S(=O)(Nc1cnc(Cl)nc1Cl)c1c[nH]c2cc(Cl)ccc12 [Example 6, 6-chloro-N-(2,4-dichloropyrimidin-5-yl)-1H-indole-3-sulfonamide] | 1190

test system: not listed separately; assay: Microsome Clearance Assay; format: in vitro ADME; details: human microsomes 0.5 mg/mL plus NADPH, 37° C., test compound 1 microM final
Procedure: Microsome Clearance Assay Protocol:
Incubations at a test compound of 1 mM in microsomes (0.5 mg/mL) plus cofactor NADPH are performed in 96 well plates at 37° C. on a TECAN (Tecan Group Ltd, Switzerland) automated liquid handling system. The final concentration of the test compound in the incubation is 1 microM. After a 10 minutes preincubation step of the test compound with the microsomes, the enzymatic reaction is started by the addition of cofactors. At 1, 3, 6, 9, 15, 25, 35 and 45 minutes, aliquots of the incubations are removed and quenched with 1:3 (v/v) acetonitrile containing internal standards. Samples are then cooled and centrifuged before analysis of the supernatant by LC-MS/MS.
Reference compounds were tested against exemplified compounds for their Microsome Clearance to evaluate metabolite stability.

Row | SMILES | microsomal CLint at 1 microM [µL/min/mg]
14 | COc1nc(NS(=O)(=O)c2c[nH]c3cc(Cl)ccc23)nnc1CC(F)F [Example 12, 6-chloro-N-[6-(2,2-difluoroethyl)-5-methoxy-1,2,4-triazin-3-yl]-1H-indole-3-sulfonamide] | 10
15 | COc1nc(OCC(F)F)c(F)cc1NS(=O)(=O)c1c[nH]c2nc(Cl)ccc12 [RE-A, 6-chloro-N-[6-(2,2-difluoroethoxy)-5-fluoro-2-methoxy-3-pyridyl]-1H-pyrrolo[2,3-b]pyridine-3-sulfonamide, reference compound] | 41
16 | COc1nc(OCC(F)F)ncc1NS(=O)(=O)c1c[nH]c2nc(Cl)ccc12 [Example 4, 6-chloro-N-[2-(2,2-difluoroethoxy)-4-methoxy-pyrimidin-5-yl]-1H-pyrrolo[2,3-b]pyridine-3-sulfonamide] | 10
